Where “and” joins values, the source holds several entries; their conditions need not be identical. Equal entries are not always repeated. Inconclusive results and toxic doses are left out.
Test system: P388 leukemia ip, CD2F1 mice, survival T/C
Test: NCI In Vivo Anticancer Drug Screen. Data for tumor model P388 Leukemia (intraperitoneal) in CD2F1 (CDF1) mice
Details: endpoint: median survival time, higher = longer survival
Summary of the method: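 Mice carrying the transplanted tumor received test compound or vehicle. Survival was recorded in each group, and the value is the treated-group measurement divided by that of the vehicle-treated control group.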

[1] = dose: 100.0 mg/kg/injection, schedule: Q01DX009 (ip), vehicle: saline with Tween-80
[2] = dose: 200.0 mg/kg/injection, schedule: Q01DX009 (ip), vehicle: saline with Tween-80
[3] = dose: 400.0 mg/kg/injection, schedule: Q01DX009 (ip), vehicle: saline with Tween-80
[4] = dose: 50.0 mg/kg/injection, schedule: Q01DX005 (ip), vehicle: Klucel (hydroxypropylcellulose) (HPC)
[5] = dose: 60.0 mg/kg/injection, schedule: Q01DX005 (ip), vehicle: saline with Tween-80
[6] = dose: 100.0 mg/kg/injection, schedule: Q04DX002 (ip), vehicle: saline with Tween-80
[7] = dose: 50.0 mg/kg/injection, schedule: Q01DX009 (ip), vehicle: Klucel (hydroxypropylcellulose) (HPC)
[8] = dose: 100.0 mg/kg/injection, schedule: Q01DX009 (ip), vehicle: Klucel (hydroxypropylcellulose) (HPC)

O=C(/C=C(\NC1CCCCC1)C(=O)c1ccccc1)c1ccccc1
T/C [1]: 90 % of control
T/C [2]: 90 % of control
T/C [3]: 100 % of control

CN1CCCCC1CC(O)c1ccccc1 (stereo not given)
T/C (dose: 12.5 mg/kg/injection, schedule: Q01DX005 (ip), vehicle: Klucel (hydroxypropylcellulose) (HPC)): 103 % of control
T/C (dose: 25.0 mg/kg/injection, schedule: Q01DX005 (ip), vehicle: Klucel (hydroxypropylcellulose) (HPC)): 105 % of control
T/C [4]: 100 % of control

c1ccc2c(SC3CCC4CC5CC4C3C5)nccc2c1 (stereo not given)
T/C [5]: 91 % of control
T/C (dose: 120.0 mg/kg/injection, schedule: Q01DX005 (ip), vehicle: saline with Tween-80): 94 % of control
T/C (dose: 240.0 mg/kg/injection, schedule: Q01DX005 (ip), vehicle: saline with Tween-80): 91 % of control

COc1ccc(-c2cc(-c3cc(-c4ccc(OC)cc4)nc(N)n3)nc(N)n2)cc1
T/C (dose: 60.0 mg/kg/injection, schedule: Q01DX005 (ip), vehicle: saline): 105 % of control
T/C (dose: 120.0 mg/kg/injection, schedule: Q01DX005 (ip), vehicle: saline): 102 % of control
T/C (dose: 240.0 mg/kg/injection, schedule: Q01DX005 (ip), vehicle: saline): 105 % of control

C/C(=N\NC(N)=Nc1ccc(C)cc1)c1ccc2c(c1)Cc1ccccc1-2
T/C (dose: 25.0 mg/kg/injection, schedule: Q04DX002 (ip), vehicle: saline with Tween-80): 91 % of control
T/C (dose: 50.0 mg/kg/injection, schedule: Q04DX002 (ip), vehicle: saline with Tween-80): 99 % of control
T/C [6]: 97 % of control

Cc1[c-]onc1C.Cc1[c-]onc1C.[Ag].[Ag].[NH-]S(=O)(=O)c1ccc(N=Nc2cc(N=Nc3ccc(S([NH-])(=O)=O)cc3)c3c(NC(=O)C(Cl)Cl)cccc3c2OC(=O)C(Cl)Cl)cc1
T/C (dose: 3.13 mg/kg/injection, schedule: Q01DX009 (ip), vehicle: saline with Tween-80): 91 % of control
T/C (dose: 6.25 mg/kg/injection, schedule: Q01DX009 (ip), vehicle: saline with Tween-80): 89 % of control
T/C (dose: 25.0 mg/kg/injection, schedule: Q01DX009 (ip), vehicle: saline with Tween-80): 89 % of control
T/C (dose: 50.0 mg/kg/injection, schedule: Q01DX009 (ip), vehicle: saline with Tween-80): 99 % of control

C[CH2][Sn]([CH2]C)([O][P+](=O)C[Si](C)(C)c1ccccc1)[O][P+](=O)C[Si](C)(C)c1ccccc1 (stereo not given)
T/C (dose: 30.0 mg/kg/injection, schedule: Q01DX005 (ip), vehicle: saline with Tween-80): 119 % of control
T/C [5]: 153 % of control

CCN(CC)CCN1C(=O)c2cccc3c(N)c(OC)cc(c23)C1=O
T/C (dose: 25.0 mg/kg/injection, schedule: Q01DX005 (ip), vehicle: saline): 103 % of control
T/C (dose: 50.0 mg/kg/injection, schedule: Q01DX005 (ip), vehicle: saline): 100 % of control and 97 % of control
T/C (dose: 100.0 mg/kg/injection, schedule: Q01DX005 (ip), vehicle: saline): 100 % of control and 104 % of control

O=C1Oc2ccccc2CC1C(=O)c1ccc(Cl)cc1 (stereo not given)
T/C (dose: 50.0 mg/kg/injection, schedule: Q01DX005 (ip), vehicle: saline with Tween-80): 106 % of control
T/C (dose: 100.0 mg/kg/injection, schedule: Q01DX005 (ip), vehicle: saline with Tween-80): 103 % of control
T/C (dose: 200.0 mg/kg/injection, schedule: Q01DX005 (ip), vehicle: saline with Tween-80): 100 % of control

C/C(=N\SC(c1ccccc1)(c1ccccc1)c1ccccc1)c1ccccc1
T/C (dose: 100.0 mg/kg/injection, schedule: Q01DX001 (ip), vehicle: saline with Tween-80): 95 % of control
T/C (dose: 200.0 mg/kg/injection, schedule: Q01DX001 (ip), vehicle: saline with Tween-80): 88 % of control

COc1ccc2ccccc2c1/C=N/N1CCCCC1
T/C [1]: 100 % of control
T/C [2]: 104 % of control
T/C [3]: 95 % of control

CCCC(=O)Oc1c(OC(=O)CCC)c(OC(=O)CCC)c(OC(=O)CCC)c(OC(=O)CCC)c1OC(=O)CCC
T/C [6]: 95 % of control
T/C (dose: 200.0 mg/kg/injection, schedule: Q04DX002 (ip), vehicle: saline with Tween-80): 99 % of control
T/C (dose: 400.0 mg/kg/injection, schedule: Q04DX002 (ip), vehicle: saline with Tween-80): 90 % of control

CC(=O)Oc1c(C)c2c(O)c3c1C1=C(OCOC1=C(C)C3=O)C(C)=CC(C)(O)C(O)C(C)C(O)C1C(=O)OC(C(C)/C=C\C=C(C)C(=O)N2)C(C)C1O (stereo not given)
T/C [4]: 108 % of control
T/C [7]: 99 % of control
T/C (dose: 100.0 mg/kg/injection, schedule: Q01DX005 (ip), vehicle: Klucel (hydroxypropylcellulose) (HPC)): 108 % of control
T/C [8]: 100 % of control
T/C (dose: 200.0 mg/kg/injection, schedule: Q01DX005 (ip), vehicle: Klucel (hydroxypropylcellulose) (HPC)): 108 % of control
T/C (dose: 200.0 mg/kg/injection, schedule: Q01DX009 (ip), vehicle: Klucel (hydroxypropylcellulose) (HPC)): 104 % of control
T/C (dose: 400.0 mg/kg/injection, schedule: Q01DX009 (ip), vehicle: Klucel (hydroxypropylcellulose) (HPC)): 103 % of control

CC1(C)OCC(N)(CO)CO1
T/C (dose: 50.0 mg/kg/injection, schedule: Q01DX009 (ip), vehicle: saline): 107 % of control
T/C (dose: 100.0 mg/kg/injection, schedule: Q01DX009 (ip), vehicle: saline): 102 % of control
T/C (dose: 200.0 mg/kg/injection, schedule: Q01DX009 (ip), vehicle: saline): 98 % of control
T/C (dose: 400.0 mg/kg/injection, schedule: Q01DX009 (ip), vehicle: saline): 98 % of control

Nc1ncnc(Nc2ccc(C(F)(F)F)cc2)n1
T/C (dose: 12.5 mg/kg/injection, schedule: Q01DX009 (ip), vehicle: Klucel (hydroxypropylcellulose) (HPC)): 118 % of control
T/C (dose: 25.0 mg/kg/injection, schedule: Q01DX009 (ip), vehicle: Klucel (hydroxypropylcellulose) (HPC)): 107 % of control
T/C [7]: 93 % of control
T/C [8]: 87 % of control

Source: PubChem BioAssay AID330 (DTP/NCI, 2004)
